Patent publication US20220175768A1, “FGFR TYROSINE KINASE INHIBITORS FOR THE TREATMENT OF UROTHELIAL CARCINOMA” (Janssen Pharmaceutica NV, priority 2019, published 2022)

Conditions: 6 mg continuous, regimen 2 (n = 78)
Procedure: Study treatment was administered on 28-day cycles. Prior to interim analysis 1, there were 2 treatment regimens. Patients were randomized 1:1 to 28-day cycles to the following 2 regimens until a regimen was selected for further study: Regimen 1 (10 mg once daily intermittent (7 days on/7 days); Regimen 2 (6 mg once daily continuous). Randomization was stratified according to performance status (0 to 1 vs. 2), hemoglobin value (<10 vs. ≥10 g per dl), FGFR alteration type (mutation vs. fusion), prior treatment status (chemotherapy-resistant vs. chemotherapy naïve), and disease distribution (presence or absence of visceral [liver, lung, bone] metastases). Starting dose selection was based on phase 1 efficacy and tolerability.
Thus, after interim analysis, this became a single-arm study. […] Treatment continued until disease progression or unacceptable adverse event(s) per investigator.
All objective responses required confirmation by an additional investigator assessment within 4 to 6 weeks of first assessment. Disease evaluations for regimen 3 were also performed by an independent radiographic review committee. […] Safety was evaluated based on clinical laboratory tests, physical exams, electrocardiograms, and ophthalmology examinations. Adverse events and abnormalities were assessed by investigator and graded per NCI CTCAE v.4.0
Prophylactic measures were taken to minimize risk of common adverse events related to FGFR inhibition. To reduce risk of hyperphosphatemia, a low-phosphate diet was recommended for all patients (600 to 800 mg of dietary phosphate intake per day). To reduce the risk of skin effects, the application of alcohol-free emollient moisturizing cream and avoidance of unnecessary exposure to sunlight, soap, perfumed products, and hot baths was recommended. Patients were asked to keep their fingers and toes clean and nails trimmed to reduce risk of nail effects.
Additional ophthalmology examinations were performed if clinically indicated.

COc1cc(OC)cc(N(CCNC(C)C)c2ccc3ncc(-c4cnn(C)c4)nc3c2)c1 [erdafitinib, N-(3,5-dimethoxy-phenyl)-N′-(1-methylethyl)-N-[3-(1-methyl-1H-pyrazol-4-yl)quinoxalin-6-yl]ethane-1,2-diamine]
Patients with Abdominal pain, Any grade: 14 (18) no. (%) | Patients with Abdominal pain, Grade 1: 7 (9) no. (%) | Patients with Abdominal pain, Grade 2: 5 (6) no. (%) | Patients with Abdominal pain, Grade ≥3: 2 (3) no. (%) | Patients with Alanine aminotransferase increased, Any grade: 9 (12) no. (%) | Patients with Alanine aminotransferase increased, Grade 1: 7 (9) no. (%) | Patients with Alanine aminotransferase increased, Grade 2: 2 (3) no. (%) | Patients with Alanine aminotransferase increased, Grade ≥3: 0 no. (%) | Patients with Alopecia, Any grade: 10 (13) no. (%) | Patients with Alopecia, Grade 1: 9 (12) no. (%) | Patients with Alopecia, Grade 2: 1 (1) no. (%) | Patients with Alopecia, Grade ≥3: 0 no. (%) | Patients with Anemia, Any grade: 13 (17) no. (%) | Patients with Anemia, Grade 1: 0 no. (%) | Patients with Anemia, Grade 2: 8 (10) no. (%) | Patients with Anemia, Grade ≥3: 5 (6) no. (%) | Patients with Arthralgia, Any grade: 8 (10) no. (%) | Patients with Arthralgia, Grade 1: 5 (6) no. (%) | Patients with Arthralgia, Grade 2: 2 (3) no. (%) | Patients with Arthralgia, Grade ≥3: 1 (1) no. (%) | Patients with Aspartate aminotransferase increased, Any grade: 9 (12) no. (%) | Patients with Aspartate aminotransferase increased, Grade 1: 7 (9) no. (%) | Patients with Aspartate aminotransferase increased, Grade 2: 2 (3) no. (%) | Patients with Aspartate aminotransferase increased, Grade ≥3: 0 no. (%) | Patients with Asthenia, Any grade: 18 (23) no. (%) | Patients with Asthenia, Grade 1: 5 (6) no. (%) | Patients with Asthenia, Grade 2: 4 (5) no. (%) | Patients with Asthenia, Grade ≥3: 9 (12) no. (%) | Patients with Back pain, Any grade: 11 (14) no. (%) | Patients with Back pain, Grade 1: 6 (8) no. (%) | Patients with Back pain, Grade 2: 3 (4) no. (%) | Patients with Back pain, Grade ≥3: 2 (3) no. (%) | Patients with Blood creatinine increased, Any grade: 6 (8) no. (%) | Patients with Blood creatinine increased, Grade 1: 3 (4) no. (%) | Patients with Blood creatinine increased, Grade 2: 3 (4) no. (%) | Patients with Blood creatinine increased, Grade ≥3: 0 no. (%) | Patients with Conjunctivitis, Any grade: 7 (9) no. (%) | Patients with Conjunctivitis, Grade 1: 4 (5) no. (%) | Patients with Conjunctivitis, Grade 2: 2 (3) no. (%) | Patients with Conjunctivitis, Grade ≥3: 1 (1) no. (%) | Patients with Constipation, Any grade: 20 (26) no. (%) | Patients with Constipation, Grade 1: 10 (13) no. (%) | Patients with Constipation, Grade 2: 10 (13) no. (%) | Patients with Constipation, Grade ≥3: 0 no. (%) | Patients with Decreased appetite, Any grade: 29 (37) no. (%) | Patients with Decreased appetite, Grade 1: 12 (15) no. (%) | Patients with Decreased appetite, Grade 2: 13 (17) no. (%) | Patients with Decreased appetite, Grade ≥3: 4 (5) no. (%) | Patients with Diarrhea, Any grade: 39 (50) no. (%) | Patients with Diarrhea, Grade 1: 24 (31) no. (%) | Patients with Diarrhea, Grade 2: 15 (19) no. (%) | Patients with Diarrhea, Grade ≥3: 0 no. (%) | Patients with Dry eye, Any grade: 6 (8) no. (%) | Patients with Dry eye, Grade 1: 3 (4) no. (%) | Patients with Dry eye, Grade 2: 2 (3) no. (%) | Patients with Dry eye, Grade ≥3: 1 (1) no. (%) | Patients with Dry mouth, Any grade: 31 (40) no. (%) | Patients with Dry mouth, Grade 1: 23 (30) no. (%) | Patients with Dry mouth, Grade 2: 6 (8) no. (%) | Patients with Dry mouth, Grade ≥3: 2 (3) no. (%) | Patients with Dry skin, Any grade: 18 (23) no. (%) | Patients with Dry skin, Grade 1: 10 (13) no. (%) | Patients with Dry skin, Grade 2: 8 (10) no. (%) | Patients with Dry skin, Grade ≥3: 0 no. (%) | Patients with Dysgeusia, Any grade: 10 (13) no. (%) | Patients with Dysgeusia, Grade 1: 6 (8) no. (%) | Patients with Dysgeusia, Grade 2: 4 (5) no. (%) | Patients with Dysgeusia, Grade ≥3: 0 no. (%) | Patients with Dyspepsia, Any grade: 9 (12) no. (%) | Patients with Dyspepsia, Grade 1: 6 (8) no. (%) | Patients with Dyspepsia, Grade 2: 3 (4) no. (%) | Patients with Dyspepsia, Grade ≥3: 0 no. (%) | Patients with Dyspnea, Any grade: 6 (7) no. (%) | Patients with Dyspnea, Grade 1: 1 (1) no. (%) | Patients with Dyspnea, Grade 2: 3 (4) no. (%) | Patients with Dyspnea, Grade ≥3: 2 (3) no. (%) | Patients with Fatigue, Any grade: 20 (26) no. (%) | Patients with Fatigue, Grade 1: 8 (10) no. (%) | Patients with Fatigue, Grade 2: 8 (10) no. (%) | Patients with Fatigue, Grade ≥3: 4 (5) no. (%) | Patients with Hand-foot syndrome, Any grade: 13 (17) no. (%) | Patients with Hand-foot syndrome, Grade 1: 4 (5) no. (%) | Patients with Hand-foot syndrome, Grade 2: 9 (12) no. (%) | Patients with Hand-foot syndrome, Grade ≥3: 0 no. (%) | Patients with Hematuria, Any grade: 6 (8) no. (%) | Patients with Hematuria, Grade 1: 5 (6) no. (%) | Patients with Hematuria, Grade 2: 0 no. (%) | Patients with Hematuria, Grade ≥3: 1 (1) no. (%) | Patients with Hyperphosphatemia, Any grade: 52 (67) no. (%) | Patients with Hyperphosphatemia, Grade 1: 44 (56) no. (%) | Patients with Hyperphosphatemia, Grade 2: 8 (10) no. (%) | Patients with Hyperphosphatemia, Grade ≥3: 0 no. (%) | Patients with Hypomagnesemia, Any grade: 6 (8) no. (%) | Patients with Hypomagnesemia, Grade 1: 6 (8) no. (%) | Patients with Hypomagnesemia, Grade 2: 0 no. (%) | Patients with Hypomagnesemia, Grade ≥3: 0 no. (%) | Patients with Hyponatremia, Any grade: 7 (9) no. (%) | Patients with Hyponatremia, Grade 1: 2 (3) no. (%) | Patients with Hyponatremia, Grade 2: 0 no. (%) | Patients with Hyponatremia, Grade ≥3: 5 (6) no. (%) | Patients with Insomnia, Any grade: 8 (10) no. (%) | Patients with Insomnia, Grade 1: 4 (5) no. (%) | Patients with Insomnia, Grade 2: 2 (3) no. (%) | Patients with Insomnia, Grade ≥3: 2 (3) no. (%) | Patients with Lacrimation increased, Any grade: 13 (17) no. (%) | Patients with Lacrimation increased, Grade 1: 10 (13) no. (%) | Patients with Lacrimation increased, Grade 2: 3 (4) no. (%) | Patients with Lacrimation increased, Grade ≥3: 0 no. (%) | Patients with Nail dystrophy, Any grade: 7 (9) no. (%) | Patients with Nail dystrophy, Grade 1: 6 (8) no. (%) | Patients with Nail dystrophy, Grade 2: 1 (1) no. (%) | Patients with Nail dystrophy, Grade ≥3: 0 no. (%) | Patients with Nausea, Any grade: 16 (21) no. (%) | Patients with Nausea, Grade 1: 11 (14) no. (%) | Patients with Nausea, Grade 2: 4 (5) no. (%) | Patients with Nausea, Grade ≥3: 1 (1) no. (%) | Patients with Onycholysis, Any grade: 13 (17) no. (%) | Patients with Onycholysis, Grade 1: 2 (3) no. (%) | Patients with Onycholysis, Grade 2: 6 (8) no. (%) | Patients with Onycholysis, Grade ≥3: 5 (6) no. (%) | Patients with Onychomadesis, Any grade: 8 (10) no. (%) | Patients with Onychomadesis, Grade 1: 2 (3) no. (%) | Patients with Onychomadesis, Grade 2: 6 (8) no. (%) | Patients with Onychomadesis, Grade ≥3: 0 no. (%) | Patients with Oropharyngeal pain, Any grade: 8 (10) no. (%) | Patients with Oropharyngeal pain, Grade 1: 5 (6) no. (%) | Patients with Oropharyngeal pain, Grade 2: 3 (4) no. (%) | Patients with Oropharyngeal pain, Grade ≥3: 0 no. (%) | Patients with Pain in extremity, Any grade: 9 (12) no. (%) | Patients with Pain in extremity, Grade 1: 2 (3) no. (%) | Patients with Pain in extremity, Grade 2: 6 (8) no. (%) | Patients with Pain in extremity, Grade ≥3: 1 (1) no. (%) | Patients with Paronychia, Any grade: 12 (15) no. (%) | Patients with Paronychia, Grade 1: 2 (3) no. (%) | Patients with Paronychia, Grade 2: 10 (13) no. (%) | Patients with Paronychia, Grade ≥3: 0 no. (%) | Patients with Peripheral edema, Any grade: 6 (8) no. (%) | Patients with Peripheral edema, Grade 1: 2 (3) no. (%) | Patients with Peripheral edema, Grade 2: 3 (4) no. (%) | Patients with Peripheral edema, Grade ≥3: 1 (1) no. (%) | Patients with Pyrexia, Any grade: 14 (18) no. (%) | Patients with Pyrexia, Grade 1: 8 (10) no. (%) | Patients with Pyrexia, Grade 2: 3 (4) no. (%) | Patients with Pyrexia, Grade ≥3: 3 (4) no. (%) | Patients with Retinal detachment, Any grade: 8 (10) no. (%) | Patients with Retinal detachment, Grade 1: 5 (6) no. (%) | Patients with Retinal detachment, Grade 2: 3 (4) no. (%) | Patients with Retinal detachment, Grade ≥3: 0 no. (%) | Patients with Stomatitis, Any grade: 33 (42) no. (%) | Patients with Stomatitis, Grade 1: 13 (17) no. (%) | Patients with Stomatitis, Grade 2: 13 (17) no. (%) | Patients with Stomatitis, Grade ≥3: 7 (9) no. (%) | Patients with Urinary tract infection, Any grade: 13 (17) no. (%) | Patients with Urinary tract infection, Grade 1: 0 no. (%) | Patients with Urinary tract infection, Grade 2: 9 (12) no. (%) | Patients with Urinary tract infection, Grade ≥3: 4 (5) no. (%) | Patients with Vision blurred, Any grade: 5 (6) no. (%) | Patients with Vision blurred, Grade 1: 3 (4) no. (%) | Patients with Vision blurred, Grade 2: 1 (1) no. (%) | Patients with Vision blurred, Grade ≥3: 1 (1) no. (%) | Patients with Vomiting, Any grade: 11 (14) no. (%) | Patients with Vomiting, Grade 1: 9 (12) no. (%) | Patients with Vomiting, Grade 2: 2 (3) no. (%) | Patients with Vomiting, Grade ≥3: 0 no. (%) | Patients with Weight decreased, Any grade: 8 (10) no. (%) | Patients with Weight decreased, Grade 1: 4 (5) no. (%) | Patients with Weight decreased, Grade 2: 2 (3) no. (%) | Patients with Weight decreased, Grade ≥3: 2 (3) no. (%) | Treatment-related adverse event: Alopecia, Any grade: 8 (10) no. (%) | Treatment-related adverse event: Alopecia, Grade 1: 8 (10) no. (%) | Treatment-related adverse event: Alopecia, Grade 2: 0 no. (%) | Treatment-related adverse event: Alopecia, Grade ≥3: 0 no. (%)
